Measured values taken from patent US10392404B2, “Compounds and compositions as kinase inhibitors” (NOVARTIS AG, priority 2014, dated 2019).

Key:
b-Raf (V600E) = biological target: T1, b-Raf (V600E) (Homo sapiens, UniProt P15056, V600E); test: In vitro Raf activity determination (Alpha Screen, biotinylated kinase-dead MEK1 substrate), B-Raf; type: biochemical; settings: b-Raf (V600E) approximately 4 pM; ATP 10 μM; pre-incubation 60 minutes; reaction 3 hours at room temperature
T1 construct: made in house
Summary of the method: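 IC50 from non-linear regression of AlphaScreen phospho-MEK signal (anti-p-MEK1/2 antibody). b-Raf(V600E), about 4 pM, phosphorylated ~10 nM biotinylated K97R MEK1 with 10 μM ATP for 3 h at room temperature after 60 min compound pre-incubation; buffer pH 7.5 Tris, 15 mM MgCl2, 1 mM DTT.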

C-RAF = biological target: T2, C-RAF (Homo sapiens, UniProt P04049, Y340E/Y341E); test: In vitro Raf activity determination (Alpha Screen, biotinylated kinase-dead MEK1 substrate), C-Raf; type: biochemical; settings: c-Raf approximately 4 nM; ATP 1 μM; pre-incubation 60 minutes; reaction 1 hour at room temperature
T2 construct: His tag (implied by nickel chromatography) (cleaved yes); StrepII tag (cleaved yes); made in house; host or cells: Sf9 insect cells (baculovirus), CRAF and h14-3-3 zeta co-expressed; MEK1 substrate from E. coli
Summary of the method: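 AlphaScreen read-out of MEK phosphorylation using an anti-phospho-MEK1/2 antibody after a 1 hour room-temperature reaction at 1 μM ATP. Enzyme: approximately 4 nM Sf9-expressed full-length activated C-Raf (Y340E/Y341E, with 14-3-3ζ) on approximately 10 nM biotinylated K97R MEK1, after 60 min compound preincubation. IC50 by non-linear fit.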

T1 sequence (P15056 whole entry V600E): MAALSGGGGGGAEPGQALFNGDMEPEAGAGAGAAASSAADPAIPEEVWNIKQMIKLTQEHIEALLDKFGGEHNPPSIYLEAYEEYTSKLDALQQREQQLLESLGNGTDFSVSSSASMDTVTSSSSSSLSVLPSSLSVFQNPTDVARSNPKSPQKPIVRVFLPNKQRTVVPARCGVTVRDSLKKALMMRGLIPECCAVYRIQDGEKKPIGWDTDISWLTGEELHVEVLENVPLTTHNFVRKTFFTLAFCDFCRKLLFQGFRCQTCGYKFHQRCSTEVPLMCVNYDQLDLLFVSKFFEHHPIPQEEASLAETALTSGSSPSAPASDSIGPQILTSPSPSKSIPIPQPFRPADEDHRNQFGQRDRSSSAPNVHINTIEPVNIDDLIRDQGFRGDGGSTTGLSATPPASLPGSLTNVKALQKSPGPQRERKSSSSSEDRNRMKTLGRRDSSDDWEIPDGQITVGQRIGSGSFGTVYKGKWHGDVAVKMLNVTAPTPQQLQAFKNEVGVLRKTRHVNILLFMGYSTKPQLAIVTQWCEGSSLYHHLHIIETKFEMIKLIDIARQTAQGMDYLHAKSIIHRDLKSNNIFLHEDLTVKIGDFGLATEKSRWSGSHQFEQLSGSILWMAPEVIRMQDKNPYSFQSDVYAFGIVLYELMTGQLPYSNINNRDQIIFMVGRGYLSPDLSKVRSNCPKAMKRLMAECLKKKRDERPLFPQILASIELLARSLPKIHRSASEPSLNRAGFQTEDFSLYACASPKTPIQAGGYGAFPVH
T2 sequence (P04049 whole entry Y340E/Y341E): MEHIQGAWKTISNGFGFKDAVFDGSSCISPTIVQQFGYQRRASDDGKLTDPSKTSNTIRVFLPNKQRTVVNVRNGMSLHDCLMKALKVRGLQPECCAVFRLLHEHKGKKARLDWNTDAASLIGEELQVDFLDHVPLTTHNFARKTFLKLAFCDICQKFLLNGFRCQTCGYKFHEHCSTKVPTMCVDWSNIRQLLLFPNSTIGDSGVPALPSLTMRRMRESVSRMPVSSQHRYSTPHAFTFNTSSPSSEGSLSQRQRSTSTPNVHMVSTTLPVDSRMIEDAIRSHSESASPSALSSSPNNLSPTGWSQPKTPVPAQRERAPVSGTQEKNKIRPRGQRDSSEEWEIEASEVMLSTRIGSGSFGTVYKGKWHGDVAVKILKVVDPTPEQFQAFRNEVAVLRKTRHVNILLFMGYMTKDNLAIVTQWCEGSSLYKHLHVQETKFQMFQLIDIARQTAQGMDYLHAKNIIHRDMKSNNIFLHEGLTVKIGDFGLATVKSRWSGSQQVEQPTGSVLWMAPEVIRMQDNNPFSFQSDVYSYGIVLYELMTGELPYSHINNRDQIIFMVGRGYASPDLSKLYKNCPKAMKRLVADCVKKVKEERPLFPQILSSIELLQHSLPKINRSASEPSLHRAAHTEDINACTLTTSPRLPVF
T2 sequence (P63104 whole entry partner): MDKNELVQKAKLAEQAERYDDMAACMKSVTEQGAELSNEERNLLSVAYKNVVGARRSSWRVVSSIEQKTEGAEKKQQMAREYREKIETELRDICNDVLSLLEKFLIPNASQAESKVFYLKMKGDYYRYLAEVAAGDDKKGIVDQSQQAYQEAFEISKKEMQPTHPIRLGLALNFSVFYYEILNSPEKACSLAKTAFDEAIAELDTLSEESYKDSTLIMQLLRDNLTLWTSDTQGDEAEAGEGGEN

IC50 (b-Raf (V600E)) | IC50 (C-RAF) | SMILES
10.6 nM | 2.02 nM | Cc1ccc(NC(=O)c2cc(C(C)(C)N)cc(C(F)(F)F)c2)cc1-c1cnc(N2CC(C)(O)C2)c(C#N)c1 [Example 248, 3-(2-aminopropan-2-yl)-N-(3-(5-cyano-6-(3-hydroxy-3-methylazetidin-1-yl)pyridin-3-yl)-4-methylphenyl)-5-(trifluoromethyl) benzamide]
0.805 nM | 0.123 nM | CCNc1ncc(-c2cc(NC(=O)c3ccnc(C(F)(F)F)c3)ccc2C)cc1C#N [Example 24, N-(3-(5-cyano-6-(ethylamino)pyridin-3-yl)-4-methylphenyl)-2-(trifluoromethyl) isonicotinamide]
4.14 nM | 0.511 nM | Cc1ccc(NC(=O)c2ccnc(S(C)(=O)=O)c2)cc1-c1cnc(C2CCOCC2)c(C#N)c1 [Example 138, N-(3-(5-cyano-6-(tetrahydro-2H-pyran-4-yl)pyridin-3-yl)-4-methylphenyl)-2-(methylsulfonyl) isonicotinamide]
7.88 nM | 1.14 nM | Cc1ncc(NC(=O)c2cccc(C(F)F)c2)cc1-c1cnc(N2CC(C)(O)C2)c(C#N)c1 [Example 184, N-(5′-cyano-6′-(3-hydroxy-3-methylazetidin-1-yl)-2-methyl-[3,3′-bipyridin]-5-yl)-3-(difluoromethyl) benzamide]
18 nM | 2.75 nM | Cc1ncc(NC(=O)c2ccnc(C(C)(C)C#N)c2)cc1-c1cnc(-c2ccc(=O)n(C)c2)c(C#N)c1 [Example 105, N-(3′-cyano-1,2″- dimethyl-6-oxo-1,6-dihydro-[3,2′:5′,3″- terpyridin]-5″-yl)-2-(2-cyanopropan-2-yl)isonicotinamide]
3.79 nM | 0.435 nM | Cc1ccc(NC(=O)c2cc(C3CC3)on2)cc1-c1cnc(N(C)C)c(C#N)c1 [Example 259, N-(3-(5-cyano-6-(dimethylamino)pyridin-3-yl)-4-methylphenyl)-5-cyclopropylisoxazole-3-carboxamide]
2.76 nM | 0.479 nM | COc1ncc(-c2cc(NC(=O)c3ccnc(C(C)(C)C#N)c3)ccc2C)cc1C#N [Example 36, N-(3-(5-cyano-6-methoxypyridin-3-yl)-4-methylphenyl)-2-(2-cyanopropan-2-yl)isonicotinamide]
